We go through eight compounds from patent EP2313424B1, “ANIONIC PREGNANE COMPOUNDS, METHOD FOR THEIR PRODUCING AND USE OF THEM” (Ústav organické chemie a biochemie Akademie ved Ceské …, priority 2008, dated 2010).

The assay relates to NMDA receptor. In words: Whole-cell voltage-clamp recording of NMDA-induced currents in cultured hippocampal neurons. Type of assay: cell-based, rats. To be noted: for IC50: estimated from relative inhibition at 100 µM steroid with the logistic equation, apparent Hill coefficient 1.2, 100 µM NMDA; for mean inhibitory effect on NMDA-induced currents: 100 µM steroid, responses elicited by 100 µM NMDA.

[1] abbreviates: relative degree of inhibition by 100 µM steroid of current responses induced by fast application of 100 µM NMDA, cultured hippocampal neurons, holding potential -60 mV.
[2] abbreviates: cultured hippocampal neurons, holding potential -60 mV.

Read-outs that look alike come from different tables or passages of the source.

For “20-Oxo-5β-pregnane-3α,7α-diyl 3-Sulfate 7-Nicotinate Pyridinium Salt [Example 19]”, the half-maximal inhibitory concentration (IC50) (cultured hippocampal neurons) was 116 µM. Moreover, the “Inhibition (X)” value under setting [1] is 46.9. On the same counts, the results for `CC(=O)O[C@@H]1C[C@H]2C[C@H](OC(=O)CCC(=O)O)CC[C@]2(C)[C@H]2CC[C@]3(C)[C@@H](C(C)=O)CC[C@H]3[C@H]12` [Example 3, 20-Oxo-5α-pregnane-3α,7α-diyl 3-Hemisuccinate 7-Acetate] are 384 µM and 17.4. Consider `CC(=O)O[C@@H]1C[C@@H]2C[C@H](OC(=O)CCC(=O)O)CC[C@]2(C)[C@H]2CC[C@]3(C)[C@@H](C(C)=O)CC[C@H]3[C@H]12` [Example 12, 20-Oxo-5β-pregnane-3α,7α-diyl 3-Hemisuccinate 7-Acetate], for which the concentration for half-maximal inhibition (IC50) (cultured hippocampal neurons) was 300 µM. Under setting [1], the “Inhibition (X)” value was 21.4. For the compound `CC(=O)O[C@@H]1C[C@H]2C[C@H](OS(=O)(=O)[O-])CC[C@]2(C)[C@H]2CC[C@]3(C)[C@@H](C(C)=O)CC[C@H]3[C@H]12.[Na+]` [Example 5, 20-Oxo-5α-pregnan-3α,7α-diyl 3-Sulfate 7-Acetate Sodium Salt], the “mean inhibitory effect on NMDA-induced currents” value under setting [2] is recorded as 17%. Regarding “20-Oxo-5β-pregnan-3α,7α-diyl 3-Sulfate 7-Acetate Pyridinium Salt [Example 13]”, the IC50 (cultured hippocampal neurons) is 186 µM. The “Inhibition (X)” value under setting [1] stood at 34.1. With “20-Oxo-5α-pregnane-3α,7α-diyl 3-Sulfate 7-Acetate Pyridinium Salt [Example 4]”, the “Inhibition (X)” value turned out to be 35.2. In addition, under “cultured hippocampal neurons”, the half-inhibitory concentration (IC50) is 167 µM.

As to “pregnanolone sulfate [reference compound]”, the “mean inhibitory effect on NMDA-induced currents” value is 71.3 ± 5.0% under setting [2] and 71% (cultured hippocampal neurons, holding potential -60 mV, listed as 5β-pregnenolone sulfate).

For “20-Oxo-5α-pregnane-3α,7α-diyl 3-Sulfate 7-Nicotinate Pyridinium Salt [Example 10]”, the IC50 (cultured hippocampal neurons) is 154 µM. The “Inhibition (X)” value under setting [1] turned out to be 37.8.

As a reminder, the IC50 is the midpoint of a concentration-inhibition curve.
